Experimental data taken from ChEMBL document CHEMBL5724914, “Linking interpersonal differences in gut microbiota composition and drug biotransformation activity” (2024).

What was measured:
[1] = human gut metagenome, 24 h, 2 µM
[2] = The drug is tested on WLS-310 corresponding to human gut metagenome with ENA study accession number: PRJEB37062 and ENA sample accession number: ERS12561785 for biotransformation under anaerobic condition. The drug concentrations were measured over 9 timepoints collected between 0 and 24 hours of incubation by liquid-chromatography-coupled mass spectrometry (LC–MS); details: 2 µM
[3] = The drug is tested on WLS-010 corresponding to human gut metagenome with ENA study accession number: PRJEB37062 and ENA sample accession number: ERS12561743 for biotransformation under anaerobic condition. The drug concentrations were measured over 9 timepoints collected between 0 and 24 hours of incubation by liquid-chromatography-coupled mass spectrometry (LC–MS); details: 2 µM
[4] = human gut metagenome, 24 h, 2 µM; remark: listed apart in the source
[5] = human gut metagenome, 24 h, 2 µM; remark: listed apart in the source
[6] = human gut metagenome, 24 h, 2 µM; remark: listed apart in the source
[7] = human gut metagenome, 24 h, 2 µM; remark: listed apart in the source
[8] = human gut metagenome, 24 h, 2 µM; remark: listed apart in the source
[9] = The drug is tested on WLS-007 corresponding to human gut metagenome with ENA study accession number: PRJEB37062 and ENA sample accession number: ERS12561742 for biotransformation under anaerobic condition. The drug concentrations were measured over 9 timepoints collected between 0 and 24 hours of incubation by liquid-chromatography-coupled mass spectrometry (LC–MS); details: 2 µM
[10] = human gut metagenome, 24 h, 2 µM; remark: listed apart in the source
[11] = human gut metagenome, 24 h, 2 µM; remark: listed apart in the source
[12] = The drug is tested on Z-001 corresponding to mouse gut metagenome with ENA study accession number: PRJEB37062 and ENA sample accession number: ERS12561801 for biotransformation under anaerobic condition. The drug concentrations were measured over 9 timepoints collected between 0 and 24 hours of incubation by liquid-chromatography-coupled mass spectrometry (LC–MS); details: 2 µM
Further: call rule not given here.

| Structure (SMILES) | Bacterial Biotransformation [1] | Bacterial Biotransformation [2] | Bacterial Biotransformation [3] | Bacterial Biotransformation [4] | Bacterial Biotransformation [5] | Bacterial Biotransformation [6] | Bacterial Biotransformation [7] | Bacterial Biotransformation [8] | Bacterial Biotransformation [9] | Bacterial Biotransformation [10] | Bacterial Biotransformation [11] | Bacterial Biotransformation [12] |
| --- | --- | --- | --- | --- | --- | --- | --- | --- | --- | --- | --- | --- |
| OC(CCN1CCCCC1)(c1ccccc1)C1CC2C=CC1C2 (stereo unspecified) [BIPERIDEN] | Compound NOT metabolized | Compound metabolized | Compound NOT metabolized | Compound NOT metabolized | Compound metabolized | Compound NOT metabolized | Compound metabolized | Compound NOT metabolized | Compound NOT metabolized | Compound metabolized | Compound metabolized |  |
| CC(=O)O[C@]1(C(C)=O)CC[C@H]2[C@@H]3C=C(Cl)C4=CC(=O)[C@@H]5C[C@@H]5[C@]4(C)[C@H]3CC[C@@]21C [CYPROTERONE ACETATE] | Compound metabolized | Compound metabolized | Compound metabolized | Compound metabolized | Compound metabolized | Compound metabolized | Compound metabolized | Compound metabolized | Compound metabolized | Compound metabolized | Compound NOT metabolized | Compound metabolized |
| CN(C(=O)CN(CCO)CC(=O)N(C)C(C)(C)Cc1ccccc1)C(C)(C)Cc1ccccc1 [OXETHAZAINE] | Compound NOT metabolized | Compound metabolized | Compound metabolized | Compound metabolized | Compound metabolized | Compound metabolized | Compound metabolized | Compound NOT metabolized | Compound NOT metabolized | Compound metabolized | Compound NOT metabolized |  |
| CN1CCN(CC/C=C2/c3ccccc3Sc3ccc(S(=O)(=O)N(C)C)cc32)CC1 [THIOTHIXENE] | Compound NOT metabolized | Compound metabolized | Compound metabolized | Compound metabolized | Compound metabolized | Compound metabolized | Compound metabolized | Compound metabolized | Compound NOT metabolized | Compound NOT metabolized | Compound metabolized |  |
| CS(=O)(=O)O.O.O.O.O=C1Cc2cc(CCN3CCN(c4nsc5ccccc45)CC3)c(Cl)cc2N1 [ZIPRASIDONE MESYLATE] | Compound NOT metabolized | Compound metabolized | Compound NOT metabolized | Compound NOT metabolized | Compound metabolized | Compound metabolized | Compound NOT metabolized | Compound NOT metabolized | Compound NOT metabolized | Compound metabolized | Compound NOT metabolized |  |
